According to US5977133A, “Pyridone antibiotic with improved safety profile” (priority 1998, dated 1999):
Counter-ions that a name gives are not always drawn.

Columns and labels:
Format in all cases: cell-based
[1] = tested on: E. coli; experiment: In vitro MIC, agar dilution; conditions: Escherichia coli, 25 isolates
Protocol: (§1) Each plate was inoculated with 1:100 (or 1:10 for slow-growing strains, primarily Micrococcus and Streptococcus) dilutions of up to 32 different microorganisms, using a Steers replicator block calibrated to deliver approximately 10^4 colony forming units (CFU's). The inoculated plates were incubated at from about 35° C. to about 37 ° C. for approximately 20-24 hours. In addition, a control plate using BHI agar containing no test compound was prepared and incubated at the beginning and at the end of each test. The quinolone antibacterial ciprofloxacin was used as a control ("Cntl").
(§2) The numbers below the microorganism species indicate the nunbers of isolates tested. […] The MIC is defined as the lowest concentration of test compound yielding no growth (a slight haze or sparsely isolated colonies at the inoculum spot) as compared to the growth control containing no test compound.

[2] = tested on: Salmonella spp.; experiment: In vitro MIC, agar dilution; conditions: 23 isolates
Protocol: as §1, §2

[3] = tested on: N. gonorrhoeae; experiment: In vitro MIC, agar dilution; conditions: Neisseria gonorrhoeae
[4] = tested on: M. avium; experiment: In vitro MIC, agar dilution; conditions: Mycobacterium avium
[5] = tested on: P. mirabilis; experiment: In vitro MIC, agar dilution; conditions: Proteus mirabilis
[6] = tested on: S. epidermidis (CiproS); experiment: In vitro MIC, agar dilution; conditions: Staphylococcus epidermidis
[7] = tested on: Enterobacter spp.; experiment: In vitro MIC, agar dilution; conditions: Enterobacter
[8] = tested on: S. pneumoniae (PenS); experiment: In vitro MIC, agar dilution; conditions: Streptococcus pneumoniae
[9] = tested on: H. pylori; experiment: In vitro MIC, agar dilution; conditions: Helicobacter pylori
[10] = tested on: C. perfringens; experiment: microbe, parasite or virus in culture; conditions: Clostridium perfringens
[11] = tested on: Legionella spp.; experiment: microbe, parasite or virus in culture; conditions: Legionella
[12] = tested on: M. catarrhalis; experiment: In vitro MIC, agar dilution; conditions: Moraxella catarrhalis
[13] = tested on: Providencia spp.; experiment: In vitro MIC, agar dilution; conditions: Providencia
[14] = tested on: B. fragilis; experiment: In vitro MIC, agar dilution; conditions: Bacteroides fragilis
[15] = tested on: S. pneumoniae (CiproR); experiment: In vitro MIC, agar dilution; conditions: Streptococcus pneumoniae, read-out: MIC Range
[16] = tested on: E. faecium (CiproS); experiment: In vitro MIC, agar dilution; conditions: Enterococcus faecium
[17] = tested on: E. faecium (CiproR); experiment: In vitro MIC, agar dilution; conditions: Enterococcus faecium, read-out: MIC Range
[18] = tested on: S. epidermidis (CiproR); experiment: In vitro MIC, agar dilution; conditions: Staphylococcus epidermidis
[19] = tested on: S. aureus (CiproR); experiment: In vitro MIC, agar dilution; conditions: Staphylococcus aureus
[20] = tested on: P. aeruginosa (CiproR); experiment: In vitro MIC, agar dilution; conditions: Pseudomonas aeruginosa
[21] = tested on: M. pneumoniae; experiment: In vitro MIC, agar dilution; conditions: Mycoplasmoides pneumoniae, read-out: MIC Range
[22] = tested on: S. aureus (CiproS); experiment: In vitro MIC, agar dilution; conditions: Staphylococcus aureus
[23] = tested on: C. difficile; experiment: In vitro MIC, agar dilution; conditions: Clostridioides difficile
[24] = tested on: Shigella spp.; experiment: microbe, parasite or virus in culture; conditions: read-out: MIC Range
[25] = tested on: E. faecium (VanS); experiment: In vitro MIC, agar dilution; conditions: Enterococcus faecium
[26] = tested on: H. influenzae; experiment: In vitro MIC, agar dilution; conditions: Haemophilus influenzae
[27] = tested on: Klebsiella spp.; experiment: In vitro MIC, agar dilution; conditions: Klebsiella
[28] = tested on: Enterococcus spp. (VanR); experiment: In vitro MIC, agar dilution; conditions: Enterococcus
[29] = tested on: E. faecalis (VanS); experiment: In vitro MIC, agar dilution; conditions: Enterococcus faecalis
[30] = tested on: S. pyogenes; experiment: In vitro MIC, agar dilution; conditions: Streptococcus pyogenes
[31] = tested on: C. freundii; experiment: In vitro MIC, agar dilution; conditions: Citrobacter freundii
[32] = tested on: S. pneumoniae (PenR); experiment: In vitro MIC, agar dilution; conditions: Streptococcus pneumoniae
[33] = tested on: P. aeruginosa (CiproS); experiment: In vitro MIC, agar dilution; conditions: Pseudomonas aeruginosa

For Cc1c(N2C[C@@H]3CCCN[C@@H]3C2)c(F)cn2c(=O)c(C(=O)O)cc(C3CC3)c12 [Example 4, 1-cyclopropyl-8-(S,S-2,8-diaza-8-bicyclo[4.3.0]nonyl)-7-fluoro-4H-9-methyl-4-oxo-quinolizine-3-carboxylic acid hydrochloride], the MIC [1] was no more than 0.008 µg/mL, the MIC50 ([1]; read-out: MIC50) was no more than 0.008 µg/mL and the MIC90 ([1]; read-out: MIC90) was no more than 0.008 µg/mL. For the same compound, the MIC [2] was 0.004 to 0.12 µg/mL, the MIC50 ([2]; read-out: MIC50) was 0.03 µg/mL and the MIC90 ([2]; read-out: MIC90) was 0.06 µg/mL. The MIC50 [3] was 0.002 µg/mL, the MIC90 [3] was 0.015 µg/mL and the MIC ([3]; read-out: MIC Range) was 0.002 to 0.015 µg/mL. It also gave an MIC50 [4] of 0.25 µg/mL, an MIC90 [4] of 1 µg/mL and an MIC ([4]; read-out: MIC Range) of 0.25 to 4 µg/mL. It also gave an MIC50 [5] of 0.06 µg/mL, an MIC90 [5] of 0.12 µg/mL and an MIC ([5]; read-out: MIC Range) of 0.03 to 0.12 µg/mL. For the same compound, the MIC50 [6] was 0.03 µg/mL, the MIC90 [6] was 0.03 µg/mL and the MIC ([6]; read-out: MIC Range) was 0.015 to 0.03 µg/mL. For the same compound, the MIC50 [7] was 0.03 µg/mL, the MIC90 [7] was 0.12 µg/mL and the MIC ([7]; read-out: MIC Range) was 0.015 to 0.12 µg/mL. The MIC50 [8] was 0.06 µg/mL, the MIC90 [8] was 0.12 µg/mL and the MIC ([8]; read-out: MIC Range) was 0.06 to 0.12 µg/mL. For the same compound, the MIC50 [9] was 0.12 µg/mL, the MIC90 [9] was 0.25 µg/mL and the MIC ([9]; read-out: MIC Range) was 0.06 to 0.25 µg/mL. The MIC50 [10] was 0.5 µg/mL, the MIC90 [10] was 1 µg/mL and the MIC ([10]; read-out: MIC Range) was 0.25 to 1 µg/mL. It also gave an MIC50 [11] of 0.25 µg/mL, an MIC90 [11] of 0.25 µg/mL and an MIC ([11]; read-out: MIC Range) of 0.25 to 0.5 µg/mL. For the same compound, the MIC50 [12] was 0.015 µg/mL, the MIC90 [12] was 0.03 µg/mL and the MIC ([12]; read-out: MIC Range) was 0.015 to 0.03 µg/mL. For the same compound, the MIC50 [13] was 0.03 µg/mL, the MIC90 [13] was 0.12 µg/mL and the MIC ([13]; read-out: MIC Range) was 0.008 to 0.25 µg/mL. It also gave an MIC50 [14] of 0.25 µg/mL, an MIC90 [14] of 0.25 µg/mL and an MIC ([14]; read-out: MIC Range) of 0.12 to 0.5 µg/mL. It also gave an MIC [15] of 0.12 to 0.25 µg/mL, an MIC50 [16] of 0.5 µg/mL and an MIC90 [16] of 1 µg/mL. For the same compound, the MIC ([16]; read-out: MIC Range) was 0.25 to 1 µg/mL, the MIC [17] was 0.5 to 4 µg/mL and the MIC50 [18] was 0.25 µg/mL. The MIC90 [18] was 0.5 µg/mL, the MIC ([18]; read-out: MIC Range) was 0.12 to 4 µg/mL and the MIC50 [19] was 0.06 µg/mL. The MIC90 [19] was 0.25 µg/mL, the MIC ([19]; read-out: MIC Range) was 0.008 to 0.5 µg/mL and the MIC50 [20] was 8 µg/mL. For the same compound, the MIC90 [20] was 16 µg/mL, the MIC ([20]; read-out: MIC Range) was 4 to 64 µg/mL and the MIC [21] was 0.015 to 0.03 µg/mL. The MIC50 [22] was 0.002 µg/mL, the MIC90 [22] was 0.002 µg/mL and the MIC ([22]; read-out: MIC Range) was 0.0005 to 0.002 µg/mL. For the same compound, the MIC50 [23] was 0.25 µg/mL, the MIC90 [23] was 0.25 µg/mL and the MIC ([23]; read-out: MIC Range) was 0.03 to 0.25 µg/mL. It also gave an MIC [24] of 0.004 to 0.015 µg/mL, an MIC50 [25] of 0.5 µg/mL and an MIC90 [25] of 1 µg/mL. The MIC ([25]; read-out: MIC Range) was 0.12 to 1 µg/mL, the MIC50 [26] was 0.015 µg/mL and the MIC90 [26] was 0.015 µg/mL. The MIC ([26]; read-out: MIC Range) was 0.004 to 0.015 µg/mL, the MIC50 [27] was 0.06 µg/mL and the MIC90 [27] was 0.06 µg/mL. For the same compound, the MIC ([27]; read-out: MIC Range) was 0.008 to 0.25 µg/mL, the MIC50 [28] was 1 µg/mL and the MIC90 [28] was 1 µg/mL. It also gave an MIC ([28]; read-out: MIC Range) of 0.06 to 4 µg/mL, an MIC50 [29] of 0.12 µg/mL and an MIC90 [29] of 0.25 µg/mL. The MIC ([29]; read-out: MIC Range) was 0.12 to 0.25 µg/mL, the MIC50 [30] was 0.06 µg/mL and the MIC90 [30] was 0.06 µg/mL. The MIC ([30]; read-out: MIC Range) was 0.03 to 0.06 µg/mL, the MIC50 [31] was 0.03 µg/mL and the MIC90 [31] was 0.25 µg/mL. For the same compound, the MIC ([31]; read-out: MIC Range) was 0.015 to 0.25 µg/mL, the MIC50 [32] was 0.03 µg/mL and the MIC90 [32] was 0.03 µg/mL. For the same compound, the MIC ([32]; read-out: MIC Range) was 0.008 to 0.03 µg/mL, the MIC50 [33] was 0.12 µg/mL and the MIC90 [33] was 1 µg/mL. It also gave an MIC ([33]; read-out: MIC Range) of 0.03 to 2 µg/mL.
